“Also recorded” adds a separate entry of the source.
Tests used:
cerebellar granule cells = assay: Protective effect on exogenous glutamate-induced neurotoxicity during cotreatment, FDA/PI test; assay type: cell-based, rats; details: Rattus norvegicus, 24 h, glutamate 50 μM cotreatment, read-out: % surviving cells N = 4 (average + s.e.) FDA/PI test
Description: Primary cerebellar granule cells were prepared from 8 day old rats (Zivic Miller, Pittsburgh, Pa, USA). […] Glial proliferation was prevented by arabinofuranoside cytosine.
The following concentrations were tested: 5×10^-6 M, 1×10^-5 M, and 2×10^5 M.
The cell culture medium was aspirated from the plates (and correctly maintained). Plates were washed (3×2 ml) with Locke's solution without Mg^++, and solutions (1.5 ml) containing the compound to be tested (concentrations from 5×10^6 M to 2×10^5 M) were added and incubated for 2 hours in an incubator at 37° C. (5% CO2).
Treated cells were washed (3×2 ml) with Locke's solution+10% fetal calf serum, then washed (3×2 ml) with Locke's solution without Mg^++. 1.5 ml of Locke's solution (-Mg^++) or 50 μM of glutamate±the test compound (concentrations between 1 and 4×10^-5 M) in 1.5 ml of Locke's solution (-M^++) were added. The incubation was conducted for 15 minutes (37° C.). Glutamate and the compound were removed. The plates were washed with Locke's solution (2×2 ml), and then incubated in the presence of the starting medium (correctly maintained) for 24 hours at 37° C. in an incubator (5% CO2). […] The stained cells where immediately analyzed using a standard fluorescence microscope for epiillumination (Vanox Olympus, 450 nm excitation, 520 nm emission). FDA, a non polar ester, crosses cell membranes and is hydrolyzed by intracellular esterases with the consequent production of a yellow greenish color.
After glutamate treatment, some neurons can degenerate and detach from the plates. The loss of cells was estimated by comparing the number of intact or degenerated neurons in a well defined field, which was photographed before and after 24 hours after application of glutamate. The percent of surviving neurons in 4 representative fields (magnification 40×) of each monolayer was determined by a researcher unaware of the experimental conditions, evaluating the FDA/PI color, and calculating it as follows: [formula]
Data are expressed as % of surviving cells. Significance was calculated using the Dunnett's test.

neonatal rats = assay: Cerebral damage induced by icv injection of N-methyl-D-aspartate, total brain weight; assay type: in vivo; details: for Total brain weight: NMDA 25 nmoles icv, 1 hour before and immediately after NMDA, day 12
Description: Experiments were performed on 7 day old neonatal rats weighing ca. 13 grams. […] The excitotoxin was solubilized in saline, and the pH was brought to 7.4 by adding 1N NaOH. The NMDA injection (25 nmoles/μl) was performed slowly (2 minutes) at the level of the right lateral ventricle utilizing a Hamilton syringe. Saline was administered to control animals (1 μl icv).
The compound was administered subcutaneously (sc) after suspension in 1% DMSO (experiment No. 1) or in 0.5% tragacanth (experiment No. 2). The compound was tested at the following doses: 1-3-5 mg/kg sc.
The treatment was conducted performing two administrations:
1 hour before NMDA injection;
immediately after NMDA injection.
The number of animals utilized in each experimental group (corresponding to the total number of animals, i.e., experiment 1+experiment 2, according to Table 3) is indicated in brackets.
Animals were sacrificed on the 12th day (i.e., 5 days after NMDA injection) for the evaluation of the in toto brain weight, defined in mg.
The statistical significance was evaluated using Dunnett's test.

[1] = tested on: glutamate-activated cationic channels (cerebellar granule neurons); assay: Single channel current registration of glutamate-activated cationic channels; assay type: cell-based, rats
Description: (§1) Primary cell cultures of cerebellar granule cells were prepared from 8 day old rats (Zivic Miller, Pittsburgh, Pa, USA).
(§2) Neurons were grown on 35 mm plates for 7-8 days and maintained in a humid environment (95% air and 5% CO2). Cultures (2.5×10^6 cells/plate) were mainly formed by granule cells (95%), with a small amount (5%) of glial cells (Gallo V. et al.: Selective release of glutamate from cerebellar granule cells differentiating in culture. Proc. Natl. Acad. Sci. USA 79, 7919-23, 1982). Glial proliferation was prevented by arabinofuranoside cytosine.
(§3) Derivative ND37 was solubilized at a concentration of 1×10^-2 M in dimethylsulfoxide (1% DMSO), and then diluted at various concentrations in Locke's solution (-Mg^++) (154 mM NaCl/5.6 mM KCl/3.6 mM NaHCO3 /2.3 mM CaCl2 /5.6 mM glucose/5 mM HEPES, pH 7.4). ND37 was analyzed at concentrations of 20 and 30 μM.
Experiments were performed at room temperature utilizing the following medium 145 mM NaCl, 1 mM CaCl2, 5 mM glucose, and 5 mM HEPES/NaOH at pH 7.4, and patch pipettes, close to the preparation, containing 145 mM CsCl2, 1 mM CaCl2, 11 mM ethyleneglycol (β-aminoethyl ether) bis N,N'-tetraacetic acid, 10 mM HEPES/Cs(OH)2 at pH 7.2. Plates were continually perfused at a flow rate of 1 ml/min.
b) The activation by glutamate of single channels was externally recorded on membrane portions prepared from cerebellar granule cells pretreated with ND37 for 30 minutes at 37° C. Micropipettes, filled (1 μM) with glutamate, were positioned close to the membrane portions and were also utilized in order to drip the neurotransmitter. Single channel currents were registered according to the method described by Bertolini and Vicini ("Voltage-dependent block by strychnine of N-methyl-D-aspartic acid-activated cationic channels in rat cortical neurons in culture", Mol. Pharmacol. 34, 98-103, 1988).

[2] = tested on: C1300 mouse neuroblastoma cells, Neuro-2a clone; assay: Neuritogenic activity (cells with neurites, optical microscopy); assay type: cell-based
Description: C1300 mouse neuroblastoma cells, Neuro-2a clone, (American Cell Type Culture Collection, Bethesda, Md.) were grown at a density of 10,000 cells/well in a culture medium containing Dulbecco's modified Eagle medium (DMEM, Flow), 10% fetal calf serum (FCS, batch IP 02, Seromed), penicillin (100 units per ml, Irvine), and L-glutamine (2 mM, Sigma). Cells were incubated at 37° C. for 24 hours, and medium was removed and substituted with 350 μl of fresh medium plus compounds to be tested.
Tested Compounds and Their Solubilization
Compounds ND35 and ND37 were solubilized at a concentration of 1×10^-2 M in dimethylsulfoxide (1% DMSO). For the different compounds, progressive dilutions in culture medium were performed (concentrations from 1×10^-5 to 1×10^-4 M).
Neuritogenic activity (cell number with neurites, optical microscopy)
Culture plates were incubated with compounds to be tested and analyzed using a phase contrast microscope (250×). Nine fields with prefixed coordinates were chosen and photographed. Then the total number of cells and those with neurites (length at least double the cell diameter) were counted in blind in each photograph. The percentage of cells with neurites was determined after counting of at least 100 cells (Facci L. et al.: Promotion of neuritogenesis in mouse neuroblastoma cells by exogenous ganglioside GM1. J. Neurochem. Raven Press, New York, 299-305,1984).

[3] = tested on: cerebellar granule cells and cortical neurons; assay: Whole cell registration of glutamate-activated inward currents; assay type: cell-based, rats; details: glutamate 50 μM given contemporaneously with ND37 30 μM; absence of Mg++
Description: as §1, §2
Primary cell cultures of cortical neurons were prepared from one day old neonatal […] (Zivic Miller, Pittsburgh, Pa., USA) (Bertolino and Vicini: Mol. Pharmacol. 34, 98-103, 1988).
Cultures were grown on 35 mm plates, to which was added 10 μg/ml of poly-L-lysine, at a density of 5×10^5 cortical neurons/plate. Cultures were prepared on basal Eagle medium (Gibco) containing 10% fetal calf serum (Gibco), 25 mM KCl, 2 mM glutamine, and 100 μg/ml gentamycine. […]
as §3, with “μM. […]” for “μM.”

[4] = Glutamate (1 mM) + ND37 (20 uM), 30 minutes pretreatment, n = 10

CCCCCCCCCCCCCCCC(=O)NC1C(O)CC(OCC)(C(=O)N(C)C)OC1C(O)C(O)CO (stereo not drawn) [ND37, β-2-O-ethylglycoside of the dimethylamide of N-palmitoylneuraminic acid]
viability at 10 µM (cerebellar granule cells; ND37 1 × 10^-5 M): 34 ± 2%
viability at 20 µM (cerebellar granule cells; ND37 2 × 10^-5 M): 70 ± 6%
viability at 40 µM (cerebellar granule cells; ND37 4 × 10^-5 M): 88 ± 4.5%
efficacy against NMDA brain damage (neonatal rats; 1 mg/kg sc, p<0.01): significatively effective
reduction of brain damage induced by the excitotoxin (lowering of total brain weight) (neonatal rats; 1-3-5 mg/kg sc): effective in reducing the brain damage
Total brain weight (neonatal rats; Experiment n.1 (vehicle = DMSO 1%), 1 mg/kg sc): 960 mg
Total brain weight (neonatal rats; Experiment n.1 (vehicle = DMSO 1%), 3 mg/kg sc): 968 mg
Total brain weight (neonatal rats; Experiment n.1 (vehicle = DMSO 1%), 5 mg/kg sc): 959 mg
Total brain weight (neonatal rats; Experiment n.2 (0.5% tragacanth), 1 mg/kg sc): 1019 mg
Total brain weight (neonatal rats; Experiment n.2 (0.5% tragacanth), 3 mg/kg sc): 977 mg
Total brain weight (neonatal rats; Experiment n.2 (0.5% tragacanth), 5 mg/kg sc): 976 mg
Channel conductivity [1, 4]: 50 ps
Opening frequence [1, 4]: 4.1 ± 2.1 opening/sec
effect on channel conductivity and frequency of opening ([1]; pretreatment 30 minutes with 20 μM ND37): does not influence
Cells with neurities (%) ([2]; 1 × 10^-4 M): 48 ± 9%
Cells with neurities (%) ([2]; 1 × 10^-5 M): 5 ± 3%
neuritogenesis in vitro ([2]; 1×10^-5 to 1×10^-4 M): induce neuritogenesis
Cells with neurities (%) ([2]; 2.5 × 10^-5 M): 8 ± 4%
Cells with neurities (%) ([2]; 5 × 10^-5 M): 27 ± 5%
inside currents activated by glutamate (whole cell response) [3]: does not influence the control response; also recorded: not different
